Columns and labels:
purple nutsedge = assay: Test B pre/postemergence purple nutsedge; assay type: in vivo, Cyperus rotundus
Outline: (§1)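 Test chemicals in a non-phytotoxic solvent mixture with surfactant were sprayed preemergence onto planted seeds and postemergence onto plants 2 to 18 cm tall (1- to 4-leaf stage). After twelve to sixteen days in a greenhouse, injury was visually rated against untreated controls from 0 (no effect) to 10 (complete control).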

giant foxtail = assay: Test B pre/postemergence giant foxtail; assay type: in vivo, Setaria faberii
Outline: as §1

pigweed = assay: Test B pre/postemergence pigweed; assay type: in vivo, Amaranthus retroflexus
Outline: as §1

bedstraw = assay: Test B pre/postemergence bedstraw; assay type: in vivo, Galium aparine
Outline: as §1

sugar beet = assay: Test B pre/postemergence sugar beet; assay type: in vivo, Beta vulgaris
Outline: as §1

surinam grass = assay: Test B pre/postemergence surinam grass; assay type: in vivo, Brachiaria decumbens
Outline: as §1

cocklebur = assay: Test B pre/postemergence cocklebur; assay type: in vivo, Xanthium strumarium
Outline: as §1

crabgrass = assay: Test B pre/postemergence crabgrass; assay type: in vivo, Digitaria sanguinalis
Outline: as §1

rape = assay: Test B pre/postemergence rape; assay type: in vivo, Brassica napus
Outline: as §1

corn = assay: Test B pre/postemergence corn; assay type: in vivo, Zea mays
Outline: as §1

wheat = assay: Test B pre/postemergence wheat; assay type: in vivo, Triticum aestivum
Outline: as §1

morningglory = assay: Test B pre/postemergence morningglory; assay type: in vivo, Ipomoea hederacea
Outline: as §1

soybean = assay: Test B pre/postemergence soybean; assay type: in vivo, Glycine max
Outline: as §1

wild oat = assay: Test B pre/postemergence wild oat; assay type: in vivo, Avena fatua
Outline: as §1

velvetleaf = assay: Test B pre/postemergence velvetleaf; assay type: in vivo, Abutilon theophrasti
Outline: as §1

blackgrass = assay: Test B pre/postemergence blackgrass; assay type: in vivo, Alopecurus myosuroides
Outline: as §1

[1] = Postemergence, Rate 62 g/ha, scale 0 to 10, 0 is no effect, 10 is complete control
[2] = Postemergence, Rate 125 g/ha, scale of 0 to 10 where 0 is no effect and 10 is complete control
[3] = Postemergence, Rate 500 g/ha, scale 0 (no effect) to 10 (complete control)
[4] = Rate 62 g/ha, Preemergence, scale 0 to 10
[5] = Rate 250 g/ha, Postemergence, scale 0 to 10, 0 is no effect, 10 is complete control
[6] = Rate 500 g/ha, Preemergence, scale 0 to 10 (0 no effect, 10 complete control)
[7] = Preemergence, Rate 250 g/ha, scale 0 (no effect) to 10 (complete control)
[8] = Rate 125 g/ha, Preemergence, scale 0 to 10 (0 no effect, 10 complete control)

C#CC(C)n1c(=O)on(C(=O)N(c2ccc(F)cc2)C(C)C)c1=O (stereo not shown) [Compound 763] was tested, and the “Plant response rating, Nutsedge” value (purple nutsedge; [1]) was 0, the “Nutsedge plant response rating” value (purple nutsedge; [2]) was 0 and the “Nutsedge plant response rating” value (purple nutsedge; [3]) was 6. The “Nutsedge plant response rating” value (purple nutsedge; [4]) was 0, the “Nutsedge plant response rating” value (purple nutsedge; [5]) was 3 and the “Nutsedge plant response rating” value (purple nutsedge; [6]) was 5. The “Plant response rating, Giant foxtail” value (giant foxtail; [1]) was 6, the “Giant foxtail plant response rating” value (giant foxtail; [2]) was 8 and the “Giant foxtail plant response rating” value (giant foxtail; [3]) was 9. The “Giant foxtail plant response rating” value (giant foxtail; [7]) was 9, the “Giant foxtail plant response rating” value (giant foxtail; [4]) was 9 and the “Giant foxtail plant response rating” value (giant foxtail; [8]) was 9. The “Giant foxtail plant response rating” value (giant foxtail; [5]) was 9, the “Giant foxtail plant response rating” value (giant foxtail; [6]) was 9 and the “Plant response rating, Redroot pigweed” value (pigweed; [1]) was 0. The “Redroot pigweed plant response rating” value (pigweed; [2]) was 0, the “Redroot pigweed plant response rating” value (pigweed; [3]) was 8 and the “Redroot pigweed plant response rating” value (pigweed; [7]) was 10. The “Redroot pigweed plant response rating” value (pigweed; [4]) was 8, the “Redroot pigweed plant response rating” value (pigweed; [8]) was 9 and the “Redroot pigweed plant response rating” value (pigweed; [5]) was 3. For the same molecule, the “Redroot pigweed plant response rating” value (pigweed; [6]) was 10, the “Bedstraw plant response rating” value (bedstraw; [2]) was 0 and the “Bedstraw plant response rating” value (bedstraw; [3]) was 4. For the same molecule, the “Bedstraw plant response rating” value (bedstraw; [7]) was 7, the “Bedstraw plant response rating” value (bedstraw; [4]) was 0 and the “Bedstraw plant response rating” value (bedstraw; [8]) was 6. The “Bedstraw plant response rating” value (bedstraw; [6]) was 8, the “Plant response rating, Sugarbeets” value (sugar beet; [1]) was 0 and the “Sugarbeets plant response rating” value (sugar beet; [3]) was 4. For the same molecule, the “Sugarbeets plant response rating” value (sugar beet; [7]) was 3, the “Sugarbeets plant response rating” value (sugar beet; [4]) was 0 and the “Sugarbeets plant response rating” value (sugar beet; [8]) was 0. The “Sugarbeets plant response rating” value (sugar beet; [5]) was 2, the “Sugarbeets plant response rating” value (sugar beet; [6]) was 6 and the “Plant response rating, B. signalgrass” value (surinam grass; [1]) was 0. For the same molecule, the “B. signalgrass plant response rating” value (surinam grass; [2]) was 3, the “B. signalgrass plant response rating” value (surinam grass; Preemergence, Rate 62 g/ha, scale of 0 to 10 where 0 is no effect and 10 is complete control) was 0 and the “B. signalgrass plant response rating” value (surinam grass; [7]) was 9. For the same molecule, the “B. signalgrass plant response rating” value (surinam grass; [8]) was 9, the “B. signalgrass plant response rating” value (surinam grass; [5]) was 5 and the “B. signalgrass plant response rating” value (surinam grass; Rate 500 g/ha, Postemergence, scale 0 to 10, 0 is no effect, 10 is complete control) was 5. For the same molecule, the “B. signalgrass plant response rating” value (surinam grass; [6]) was 8, the “Plant response rating, Cocklebur” value (cocklebur; [1]) was 0 and the “Cocklebur plant response rating” value (cocklebur; [2]) was 0. The “Cocklebur plant response rating” value (cocklebur; [3]) was 3, the “Cocklebur plant response rating” value (cocklebur; [7]) was 0 and the “Cocklebur plant response rating” value (cocklebur; [4]) was 0. For the same molecule, the “Cocklebur plant response rating” value (cocklebur; [8]) was 0, the “Cocklebur plant response rating” value (cocklebur; [5]) was 1 and the “Cocklebur plant response rating” value (cocklebur; [6]) was 0. The “Plant response rating, Crabgrass” value (crabgrass; [1]) was 2, the “Crabgrass plant response rating” value (crabgrass; [2]) was 5 and the “Crabgrass plant response rating” value (crabgrass; [3]) was 9. The “Crabgrass plant response rating” value (crabgrass; [7]) was 10, the “Crabgrass plant response rating” value (crabgrass; [4]) was 9 and the “Crabgrass plant response rating” value (crabgrass; [8]) was 9. For the same molecule, the “Crabgrass plant response rating” value (crabgrass; [5]) was 8, the “Crabgrass plant response rating” value (crabgrass; [6]) was 9 and the “Plant response rating, Rape” value (rape; [1]) was 0. For the same molecule, the “Rape plant response rating” value (rape; [2]) was 0, the “Rape plant response rating” value (rape; [3]) was 3 and the “Rape plant response rating” value (rape; [7]) was 6. The “Rape plant response rating” value (rape; [4]) was 0, the “Rape plant response rating” value (rape; [8]) was 5 and the “Rape plant response rating” value (rape; [5]) was 0. The “Rape plant response rating” value (rape; [6]) was 9, the “Plant response rating, Corn” value (corn; [1]) was 0 and the “Corn plant response rating” value (corn; [2]) was 0. The “Corn plant response rating” value (corn; [3]) was 2, the “Corn plant response rating” value (corn; [7]) was 0 and the “Corn plant response rating” value (corn; [4]) was 0. The “Corn plant response rating” value (corn; [8]) was 0, the “Corn plant response rating” value (corn; [5]) was 0 and the “Corn plant response rating” value (corn; [6]) was 0. The “Plant response rating, Wheat” value (wheat; [1]) was 0, the “Wheat plant response rating” value (wheat; [3]) was 3 and the “Wheat plant response rating” value (wheat; [7]) was 5. For the same molecule, the “Wheat plant response rating” value (wheat; [4]) was 0, the “Wheat plant response rating” value (wheat; [8]) was 0 and the “Wheat plant response rating” value (wheat; [5]) was 4. For the same molecule, the “Wheat plant response rating” value (wheat; [6]) was 7, the “Plant response rating, Morningglory” value (morningglory; [1]) was 2 and the “Morningglory plant response rating” value (morningglory; [2]) was 7. The “Morningglory plant response rating” value (morningglory; [3]) was 7, the “Morningglory plant response rating” value (morningglory; [7]) was 0 and the “Morningglory plant response rating” value (morningglory; [4]) was 0. The “Morningglory plant response rating” value (morningglory; [8]) was 0, the “Morningglory plant response rating” value (morningglory; [5]) was 7 and the “Morningglory plant response rating” value (morningglory; [6]) was 5. For the same molecule, the “Plant response rating, Soybean” value (soybean; [1]) was 2, the “Soybean plant response rating” value (soybean; [3]) was 5 and the “Soybean plant response rating” value (soybean; [7]) was 0. The “Soybean plant response rating” value (soybean; [4]) was 0, the “Soybean plant response rating” value (soybean; [8]) was 0 and the “Soybean plant response rating” value (soybean; [5]) was 3. The “Soybean plant response rating” value (soybean; [6]) was 0, the “Plant response rating, Wild oats” value (wild oat; [1]) was 0 and the “Wild oats plant response rating” value (wild oat; [3]) was 1. The “Wild oats plant response rating” value (wild oat; [7]) was 9, the “Wild oats plant response rating” value (wild oat; [4]) was 2 and the “Wild oats plant response rating” value (wild oat; [8]) was 8. The “Wild oats plant response rating” value (wild oat; [6]) was 9, the “Plant response rating, Velvetleaf” value (velvetleaf; [1]) was 0 and the “Velvetleaf plant response rating” value (velvetleaf; [3]) was 2. For the same molecule, the “Velvetleaf plant response rating” value (velvetleaf; [7]) was 1, the “Velvetleaf plant response rating” value (velvetleaf; [4]) was 0 and the “Velvetleaf plant response rating” value (velvetleaf; [8]) was 1. For the same molecule, the “Velvetleaf plant response rating” value (velvetleaf; [5]) was 0, the “Velvetleaf plant response rating” value (velvetleaf; [6]) was 3 and the “Plant response rating, Blackgrass” value (blackgrass; [1]) was 5. For the same molecule, the “Blackgrass plant response rating” value (blackgrass; [2]) was 5, the “Blackgrass plant response rating” value (blackgrass; [3]) was 5 and the “Blackgrass plant response rating” value (blackgrass; [7]) was 9. The “Blackgrass plant response rating” value (blackgrass; [4]) was 8, the “Blackgrass plant response rating” value (blackgrass; [8]) was 9 and the “Blackgrass plant response rating” value (blackgrass; [5]) was 5. The “Blackgrass plant response rating” value (blackgrass; [6]) was 10.
